Measurements reported in patent US20240261274A1, “TREATMENT OF MYC-DRIVEN CANCERS WITH GSPT1 DEGRADERS” (MONTE ROSA THERAPEUTICS, INC., priority 2021, published 2024).

Columns and labels:
[1] = test system: Human mammary epithelial cells, or HMECs, overexpressing c-Myc in a doxycycline-inducible manner; assay: Viability of HMECs with doxycycline-inducible c-Myc overexpression; type: cell-based; conditions: for induction of cell death: highest concentration tested 30 μM
From the text: X-axis represents m concentration of compound 8; y-axis represents viability normalized to DMSO.

[2] = test system: NCI-H1155 xenograft (human non small cell lung cancer); assay: NCI-H1155 xenograft efficacy study (compound 210); type: in vivo, BALB/c nude mice
Method: For the NCI-H1155 xenograft study, cells (human non small cell lung cancer, ATCC CRL-5818) were maintained in vitro as suspension culture in ATCC-formulated DMEM:F12 Medium supplemented as recommended by the provider and kept at 37° C. in an atmosphere of 5% CO2 in air. Cells (0.5 million) were resuspended in 0.2 mL of PBS with Matrigel (50:50) and inoculated into female BALB/c nude mice, 6-8 weeks old, and allowed to grow to 150 mm^3 in size. Mice were dosed orally with either vehicle or compound 210 at 1 or 3 mg per kilogram daily (filled squares and filled triangles, respectively) or 6 mg per kilogram for 5 continuous days followed by 9 days treatment holidays (5 On-9 off) (filled inverted triangles). Compound formulations were prepared fresh daily in 5% vDMSO/95% (30% w/v HP-β-CD in water). Gemcitabine dosed at 40 mg per kilogram, IP, Q4D×5 was used as a positive control (filled rhombi). For this study, mice were dosed for 21 days with tumor volumes measured every 3 days.

[3] = molecular target: T1, GSPT1 (Homo sapiens, UniProt P15170+Q96SW2); assay: GSPT1 degradation in tumors of mice treated with compound 210; type: in vivo; design: from tissue; host or cells: NCI-H1155 subcutaneous xenograft tumours from BALB/c nude mice; conditions: 1 mg/kg, 3 mg/kg, 6 mg/kg; compared to vehicle control
[4] = molecular target: T1, GSPT1; assay: GSPT1 degradation by compound 210 in NSCLC cells; type: cell-based; design: endogenous in cells
Method: GSPT1 was degraded by compound 210 after six hours of treatment in high N-Myc NCI-H1155 and ABC-1 cells with a DC50 of 3 nM and 22 nM, respectively (x-axis represents M concentration of compound 210; y-axis represents the viability in %).

[5] = test system: NCI-1155 NSCLC cell line derived xenograft; assay: NCI-H1155 NSCLC CDX efficacy study (Compound 345); type: in vivo, immunodeficient mice; conditions: oral daily 1, 3 and 10 mg/kg
Method: Cell line derived xenograft (CDX) models were produced for the NCI-1155 NSCLC cell line in immunodeficient mice. Oral dosing of Compound 345 was performed daily at doses of 1 mg/kg, 3 mg/kg, and 10 mg/kg with a no-drug vehicle control. Tumor volumes were measured (mm^3) at days 3, 7, 10, 14, and 17.
In vivo efficacy study: NCI-H1155, MM1 S, WSU-DLCL2, DOHH-2 cells were maintained in vitro in individual medium and conditions as recommended by the providers and incubated at 37° C. in an atmosphere of 5% CO2 in air. 0.5 million (NCI-H1155), 10 million (MM1S) or 5 million (WSU-DLCL2 and DOHH-2) cells were resuspended in typically 0.1-0.2 mL of PBS with Matrigel (50:50) and were inoculated into 6-8 weeks old BALB/c nude female (NCI-H115, WSU-DLCL2), NOD/SCID (MM1S) or CB-17SCID (DOHH-2) mice and allowed to grow to 150-200 mm3 in size. Mice were dosed orally (PO) and daily (QD) with either vehicle or Compound 345 typically at 1.0 mg/kg, 3.0 mg/kg and 10 mg/kg. […] Tumor volumes were measured at least twice weekly during the treatment period using a caliper and the volume was expressed in mm3 using the formula: V=0.5 a×b2 where a and b were the long and short diameters of the tumor, respectively. […] Data are expressed as the mean±SEM. All data was analyzed using GraphPad Prism 8.1.2 (GraphPad).

T1 sequence (P15170 whole entry): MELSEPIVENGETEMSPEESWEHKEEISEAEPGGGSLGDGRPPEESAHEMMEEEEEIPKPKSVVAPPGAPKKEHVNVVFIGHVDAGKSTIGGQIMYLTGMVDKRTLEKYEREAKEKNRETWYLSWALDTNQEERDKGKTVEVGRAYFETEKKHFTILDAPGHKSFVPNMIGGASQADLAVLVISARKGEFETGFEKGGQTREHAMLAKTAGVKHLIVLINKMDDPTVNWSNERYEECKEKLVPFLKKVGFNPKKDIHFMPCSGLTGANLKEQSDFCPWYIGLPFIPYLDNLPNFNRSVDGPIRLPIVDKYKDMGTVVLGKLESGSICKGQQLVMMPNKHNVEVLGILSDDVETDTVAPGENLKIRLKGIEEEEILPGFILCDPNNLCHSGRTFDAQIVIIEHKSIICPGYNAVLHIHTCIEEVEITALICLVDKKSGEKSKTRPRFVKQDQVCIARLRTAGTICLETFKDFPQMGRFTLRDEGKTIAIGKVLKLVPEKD
T1 sequence (Q96SW2 whole entry): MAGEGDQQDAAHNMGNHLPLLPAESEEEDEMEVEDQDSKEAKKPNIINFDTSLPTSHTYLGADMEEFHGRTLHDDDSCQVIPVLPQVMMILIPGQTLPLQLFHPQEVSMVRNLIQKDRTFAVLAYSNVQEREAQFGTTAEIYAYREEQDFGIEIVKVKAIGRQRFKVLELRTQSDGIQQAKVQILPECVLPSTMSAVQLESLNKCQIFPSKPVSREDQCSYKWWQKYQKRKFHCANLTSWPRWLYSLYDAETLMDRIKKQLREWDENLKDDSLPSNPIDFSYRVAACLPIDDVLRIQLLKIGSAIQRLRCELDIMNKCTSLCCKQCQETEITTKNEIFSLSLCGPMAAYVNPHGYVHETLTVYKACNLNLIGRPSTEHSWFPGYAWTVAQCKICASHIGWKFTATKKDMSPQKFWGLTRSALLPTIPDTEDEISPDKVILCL
T1 sequence (Q16531 whole entry partner): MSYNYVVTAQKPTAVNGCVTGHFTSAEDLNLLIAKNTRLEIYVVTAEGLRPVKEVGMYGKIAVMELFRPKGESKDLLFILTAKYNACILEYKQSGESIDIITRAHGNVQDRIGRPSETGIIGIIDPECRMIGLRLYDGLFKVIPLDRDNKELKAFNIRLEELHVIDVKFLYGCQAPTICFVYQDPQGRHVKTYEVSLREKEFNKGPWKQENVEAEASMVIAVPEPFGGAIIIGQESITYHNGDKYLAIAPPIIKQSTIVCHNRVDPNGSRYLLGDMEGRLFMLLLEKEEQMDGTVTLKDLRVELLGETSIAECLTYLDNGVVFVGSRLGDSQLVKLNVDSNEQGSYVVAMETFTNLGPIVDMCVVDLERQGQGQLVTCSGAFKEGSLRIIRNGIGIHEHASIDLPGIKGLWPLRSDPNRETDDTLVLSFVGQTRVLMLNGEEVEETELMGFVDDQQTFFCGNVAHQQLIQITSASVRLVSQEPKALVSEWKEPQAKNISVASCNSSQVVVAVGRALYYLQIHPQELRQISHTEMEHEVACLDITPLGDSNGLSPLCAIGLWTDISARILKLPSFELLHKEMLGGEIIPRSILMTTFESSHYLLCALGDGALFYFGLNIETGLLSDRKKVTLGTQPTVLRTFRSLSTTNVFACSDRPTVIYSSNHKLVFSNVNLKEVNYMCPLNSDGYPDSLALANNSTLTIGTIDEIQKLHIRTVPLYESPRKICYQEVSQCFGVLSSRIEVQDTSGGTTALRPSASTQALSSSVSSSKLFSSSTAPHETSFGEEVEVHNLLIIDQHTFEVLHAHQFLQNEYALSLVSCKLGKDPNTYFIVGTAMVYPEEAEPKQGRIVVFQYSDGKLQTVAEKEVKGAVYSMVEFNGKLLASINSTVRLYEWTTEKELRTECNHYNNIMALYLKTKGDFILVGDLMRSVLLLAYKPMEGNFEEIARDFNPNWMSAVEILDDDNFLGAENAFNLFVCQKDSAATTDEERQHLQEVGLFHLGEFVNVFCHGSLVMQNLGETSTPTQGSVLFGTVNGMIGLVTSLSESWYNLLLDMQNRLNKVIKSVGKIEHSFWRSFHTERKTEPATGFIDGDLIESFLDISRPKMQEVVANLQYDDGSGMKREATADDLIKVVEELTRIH

`Cc1ccc(NC(=O)NCc2ccc3c(c2)C(=O)N(C2CCC(=O)NC2=O)C3)cc1Cl` (centres unmarked) [Compound 8] was tested, and the EC50 ([1]; Homo sapiens, HMEC, presence of high c-Myc expression, read-out: EC50 of induced cell death (viability normalized to DMSO)) was 640 nM, the “induction of cell death” value ([1]; absence of doxycycline-driven c-Myc expression) was “did not induce cell death” and the “induction of cell death” value ([1]; after doxycycline was washed out to remove c-Myc expression) was “did not induce cell death”.

In the case of `Cc1ccc(NC(=O)OCc2ccc3c(c2)C(=O)N(C2CCC(=O)NC2=O)C3)cc1Cl` (centres unmarked) [Compound 210], the body weight ([2]; oral administration, NCI-H1155 xenograft mice) is reported as “no body weight loss observed”, the tumor growth ([2]; oral, 1 mg/kg once daily) is reported as “tumor growth was suppressed for two weeks” and the tumor size ([2]; oral, 3 mg/kg once daily) is reported as “tumor size decreased, became undetectable by day eight”. The tumor size ([2]; oral, 6 mg/kg five days on and nine days off) was “tumor size decreased, became undetectable by day eight”, the “GSPT1 degradation in tumors” value [3] was “complete degradation of GSPT1” and the “relative levels of GSPT1 versus concentration” value [4] was “degrades GSPT1 in a concentration dependent manner”. For the same compound, the “extent of GSPT1 degradation” value ([4]; NCI-H1155 and ABC-1 cells) was “complete degradation of GSPT1”.

`O=C1CCC(N2Cc3ccc(COC(=O)Nc4cc(OC(F)(F)F)ccc4F)cc3C2=O)C(=O)N1` (centres unmarked) [Compound 345, (2-(2,6-dioxopiperidin-3-yl)-3-oxoisoindolin-5-yl)methyl(2-fluoro-5-(trifluoromethoxy)phenyl)carbamate] was tested, and the tumor volume [5] was “anti-tumor activity and regression”.
